Data published in US7728158B2, “PPAR activity regulators” (Ajinomoto Co., Inc., priority 2006, dated 2010).

Tests used:
PPAR-α = target: T1, PPAR-α (Homo sapiens, UniProt Q07869); test: PPAR-α reporter assay (GAL4 luciferase, CV-1 cells); assay type: cell-based; conditions: induction ratio of luciferase activity at 50 μM, activity without tested compound = 1, hGR-GAL4-hPPAR-α
T1 construct: expressed in transfected cells; host or cells: CV-1 (African green monkey kidney)
T1 sequence (Q07869 167-468): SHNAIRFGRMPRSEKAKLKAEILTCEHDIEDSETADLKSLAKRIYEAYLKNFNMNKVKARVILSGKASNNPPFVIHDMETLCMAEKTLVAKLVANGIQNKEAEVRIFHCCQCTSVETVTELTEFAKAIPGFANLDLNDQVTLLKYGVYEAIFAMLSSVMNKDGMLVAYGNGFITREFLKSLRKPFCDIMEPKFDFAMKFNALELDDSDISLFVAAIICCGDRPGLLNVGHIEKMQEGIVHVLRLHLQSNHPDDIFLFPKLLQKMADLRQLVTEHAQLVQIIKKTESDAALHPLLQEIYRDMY
Description: The reporter assay of PPAR (peroxisome proliferator-activated receptor)-α was conducted by using the following plasmids in accordance with the known report (Steven A. Kliwer et al., The Journal of Biological Chemistry Vol. 270, No. 22: 12953-12956, 1995).
As luciferase expressing plasmid, used was the plasmid which introduces the sequence wherein 5 yeast GAL4 binding sequences, UAS (upstream activating sequence), are tandemly connected to the upstream of the thymidine kinase promoter of pTAL-Luc (#6252-1, produced by Clontech) (UAS×5-TK-Luc) (1).
(§1) As PPAR-α receptor expressing plasmid, used was the plasmid which introduces the N-terminal domain of human GR (1-76aa), the yeast GAL4 DNA binding domain (1-147aa) and PPAR-α ligand binding domain (167-468aa) to NotI site and SalI site of pExchange-1 core vector (#211176, produced by Stratagene) (hGR-GAL4-hPPAR-α) (2). The plasmid mixed solution used in the reporter assay of PPAR-α contains above (1), (2) and plasmid pcDNA3.1(−) as a carrier in the weight ratio of 4:1:3.
The medium having the following composition was used for seeding cell line CV-1 used in the reporter assay, derived from the kidney of an African green monkey, on the plate; and for diluting the tested compounds. Used was Dulbecco modified Eagle medium (D2902 without phenol red, produced by SIGMA) to which 3.7 g/L of NaHCO3, 3.5 g/L of D-glucose and 10% v/v fetal bovine serum were added.
(§2) CV-1 cells were seeded on the 384-well white plate (781080, produced by Greiner) to become 1.5×10^4 cells/30 μL per one well. Then, gene transfer was conducted in accordance with the manual by using OPTI-MEM I (11058-021, produced by GIBCO), FuGENE6 (1-815-075, produced by Roche) and the above PPAR-α plasmid mixed solution. The incubation was conducted in a carbon-dioxide incubator at 37° C. for 6 to 8 hours. Then, a diluted tested compound was added thereto and incubated in a carbon-dioxide incubator at 37° C. for 16 to 18 hours. Britelite (6016979, produced by PerkinElmer) was further added thereto and stirred, and the luciferase activity was measured with EnVision (produced by PerkinElmer).
(§3) Specifying the luciferase activity without addition of a tested compound as 1, the induction ratio of the luciferase activity by each tested compound was calculated.

PPAR-γ = target: T2, PPAR-γ (Homo sapiens, UniProt P37231); test: PPAR-γ reporter assay (GAL4 luciferase, CV-1 cells); assay type: cell-based; conditions: induction ratio of luciferase activity at 25 μM, activity without tested compound = 1, hGR-GAL4-hPPAR-γ
T2 construct: expressed in transfected cells; host or cells: CV-1 (African green monkey kidney)
T2 sequence (P37231 204-505): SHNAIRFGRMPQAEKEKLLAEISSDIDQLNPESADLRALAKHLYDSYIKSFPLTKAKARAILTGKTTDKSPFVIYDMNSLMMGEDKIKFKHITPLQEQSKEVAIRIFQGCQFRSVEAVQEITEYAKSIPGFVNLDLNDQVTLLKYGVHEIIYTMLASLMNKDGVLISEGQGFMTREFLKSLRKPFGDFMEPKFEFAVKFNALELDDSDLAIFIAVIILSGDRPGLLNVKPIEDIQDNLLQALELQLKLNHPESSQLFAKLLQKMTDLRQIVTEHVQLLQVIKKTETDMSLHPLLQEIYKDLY
Description: The reporter assay of PPAR-γ was conducted by using the following plasmids in accordance with the known report (Steven A. Kliwer et al., The Journal of Biological Chemistry Vol. 270, No. 22: 12953-12956, 1995).
As luciferase expressing plasmid, used was the plasmid which introduces the sequence wherein 5 yeast GAL4 binding sequences, UAS, are tandemly connected to the upstream of the thymidine kinase promoter of pTAL-Luc (#6252-1, produced by Clontech) (UAS×5-TK-Luc) (1).
as §1, with “As PPAR-γ” for “As PPAR-α”, “and PPAR-γ2” for “and PPAR-α”, “domain (204-505aa)” for “domain (167-468aa)”, “Stratagene) (hGR-GAL4-hPPAR-γ)” for “Stratagene) (hGR-GAL4-hPPAR-α)”, “of PPAR-γ” for “of PPAR-α”
as §2, with “PPAR-γ” for “PPAR-α”
as §3

Compound: CCCCCCCCCCCCCCCCCCCCCC(=O)N[C@H](C(=O)O)C(C)C [Example 31]
- PPAR-α induction ratio (PPAR-α): 1.2
- PPAR-γ induction ratio (PPAR-γ): 4.4

Compound: CCCCCCCCCCCC(=O)N[C@H](C(=O)O)C(C)(C)C [Example 33]
- PPAR-α induction ratio (PPAR-α): 81.0
- PPAR-γ induction ratio (PPAR-γ): 30.2

Compound: CCCCCCCCC(=O)N[C@@H](CC(C)C)C(=O)O [Example 3]
- PPAR-α induction ratio (PPAR-α): 0.9
- PPAR-γ induction ratio (PPAR-γ): 6.1

Compound: CCCCCCCCCCCC(=O)NC(C)C(=O)O (racemic) [Example 13]
- PPAR-α induction ratio (PPAR-α): 25.0
- PPAR-γ induction ratio (PPAR-γ): 15.4

Compound: C=CCCCCCCCCC(=O)N[C@@H](CC(C)C)C(=O)O [Example 7]
- PPAR-α induction ratio (PPAR-α): 2.7
- PPAR-γ induction ratio (PPAR-γ): 11.5

Compound: CCCCCCCCCCCC(=O)NC(C)(Cc1ccccc1)C(=O)O (racemic) [Example 41]
- PPAR-α induction ratio (PPAR-α): 7.3
- PPAR-γ induction ratio (PPAR-γ): 5.1

Compound: CCCCCCCCC(=O)N[C@H](C(=O)O)[C@@H](C)CC [Example 2]
- PPAR-α induction ratio (PPAR-α): 2.1
- PPAR-γ induction ratio (PPAR-γ): 12.5

Compound: CCCCCCCCCCCC(=O)N[C@H](C(=O)O)C1CCCCC1 [Example 39]
- PPAR-α induction ratio (PPAR-α): 2.3
- PPAR-γ induction ratio (PPAR-γ): 11.2

Compound: CCCCCCCCCCCC(=O)NC(C)(C)C(=O)O [Example 17]
- PPAR-α induction ratio (PPAR-α): 32.0
- PPAR-γ induction ratio (PPAR-γ): 20.3

Compound: CCCCCCCCCCCC(=O)NC1(C(=O)O)CCCCCC1 [Example 44]
- PPAR-α induction ratio (PPAR-α): 6.2
- PPAR-γ induction ratio (PPAR-γ): 6.7

Compound: CCCCCCCCCCCC(=O)N[C@@H](Cc1ccc(OC)cc1)C(=O)O [Example 37]
- PPAR-α induction ratio (PPAR-α): 24.5
- PPAR-γ induction ratio (PPAR-γ): 19.5

Compound: CCCCCCCCCCCC(=O)N[C@H](C(=O)O)C(C)C [Example 20, N-lauroyl-L-valine]
- PPAR-α induction ratio (PPAR-α): 52.0
- PPAR-γ induction ratio (PPAR-γ): 19.1

Compound: CCCCCCCC(=O)N[C@H](C(=O)O)C(C)C [Example 1]
- PPAR-α induction ratio (PPAR-α): 1.5
- PPAR-γ induction ratio (PPAR-γ): 11.9

Compound: CCCCCCCCCCCC(=O)N[C@H](C(=O)O)[C@@H](C)CC [Example 14]
- PPAR-α induction ratio (PPAR-α): 51.0
- PPAR-γ induction ratio (PPAR-γ): 20.5

Compound: C=CCCCCCCCCC(=O)N[C@H](C(=O)O)C(C)C [Example 10]
- PPAR-α induction ratio (PPAR-α): 23.0
- PPAR-γ induction ratio (PPAR-γ): 15.3

Compound: CCCCCCCCCCCC(=O)NC(C(=O)O)C(C(F)(F)F)C(F)(F)F (racemic) [Example 34]
- PPAR-α induction ratio (PPAR-α): 2.3
- PPAR-γ induction ratio (PPAR-γ): 2.7

Compound: CCCCCCCCCCCC(=O)N[C@H](C(=O)O)C(c1ccccc1)c1ccccc1 [Example 40]
- PPAR-α induction ratio (PPAR-α): 2.0
- PPAR-γ induction ratio (PPAR-γ): 1.5

Compound: CCCCCCCCCCCC(=O)N[C@@H](CCSC)C(=O)O [Example 19]
- PPAR-α induction ratio (PPAR-α): 24.0
- PPAR-γ induction ratio (PPAR-γ): 20.9

Compound: CCCCCCCCCCCC(=O)N[C@@H](Cc1ccc(Cl)cc1)C(=O)O [Example 42]
- PPAR-α induction ratio (PPAR-α): 14.4
- PPAR-γ induction ratio (PPAR-γ): 6.6

Compound: CCCCCCCCCCCC(=O)NC(C(N)=O)C(C)C (racemic) [Example 21]
- PPAR-α induction ratio (PPAR-α): 45.0
- PPAR-γ induction ratio (PPAR-γ): 19.2

Compound: CCCCCCCCCC(=O)N[C@H](C(=O)O)C(C)C [Example 9]
- PPAR-α induction ratio (PPAR-α): 19.0
- PPAR-γ induction ratio (PPAR-γ): 25.4

Compound: CCCCCCCCCCCCCCCC(=O)N[C@H](C(=O)O)C(C)C [Example 28]
- PPAR-α induction ratio (PPAR-α): 29.0
- PPAR-γ induction ratio (PPAR-γ): 17.1

Compound: CCCCCCCCCCCC(=O)NC(C)(CC)C(=O)O (racemic) [Example 16]
- PPAR-α induction ratio (PPAR-α): 23.0
- PPAR-γ induction ratio (PPAR-γ): 18.5

Compound: CCCCCCCCCCCC(=O)NC(Cc1ccccc1C)C(=O)O (racemic) [Example 38]
- PPAR-α induction ratio (PPAR-α): 2.8
- PPAR-γ induction ratio (PPAR-γ): 3.2

Compound: CCCCCCCCC(=O)N[C@H](C(=O)O)C(C)C [Example 4]
- PPAR-α induction ratio (PPAR-α): 3.1
- PPAR-γ induction ratio (PPAR-γ): 12.9

Compound: CCCCCCCCCCCCNC(=O)C(NC(=O)CCCCCCCCCCC)C(C)C (racemic) [Example 22]
- PPAR-α induction ratio (PPAR-α): 44.0
- PPAR-γ induction ratio (PPAR-γ): 16.6

Compound: CCCCCCCCCCCC(=O)N[C@H](C(=O)NC1CCCCC1)C(C)C (racemic) [Example 23, N-lauroyl-L-valine cyclohexylamide]
- PPAR-α induction ratio (PPAR-α): 63.0
- PPAR-γ induction ratio (PPAR-γ): 21.3

Compound: CCCCCCCCCCCC(=O)NC(C)(C(=O)O)C(C)C (racemic) [Example 18]
- PPAR-α induction ratio (PPAR-α): 39.0
- PPAR-γ induction ratio (PPAR-γ): 24.0

Compound: CCCCCCCCCCCCCCCC(=O)N[C@@H](CC(C)C)C(=O)O [Example 27]
- PPAR-α induction ratio (PPAR-α): 2.5
- PPAR-γ induction ratio (PPAR-γ): 11.7

Compound: C=CCCCCCCCCC(=O)N[C@@H](Cc1ccccc1)C(=O)O [Example 8]
- PPAR-α induction ratio (PPAR-α): 1.3
- PPAR-γ induction ratio (PPAR-γ): 4.4

Compound: CCCCCCCCCCCC(=O)N[C@@H](CC(C)C)C(=O)O [Example 15]
- PPAR-α induction ratio (PPAR-α): 11.0
- PPAR-γ induction ratio (PPAR-γ): 9.7

Compound: CCCCCCCCCCCCCCCCCC(=O)N[C@H](C(=O)O)C(C)C [Example 30]
- PPAR-α induction ratio (PPAR-α): 15.0
- PPAR-γ induction ratio (PPAR-γ): 13.7

Compound: CCCCCCCCCCCCCC(=O)N[C@@H](CC(C)C)C(=O)O [Example 26]
- PPAR-α induction ratio (PPAR-α): 33.0
- PPAR-γ induction ratio (PPAR-γ): 21.0

Compound: CCCCCCCCCCCCCCCCCC(=O)N[C@@H](CC(C)C)C(=O)O [Example 29]
- PPAR-α induction ratio (PPAR-α): 1.6
- PPAR-γ induction ratio (PPAR-γ): 12.3

Compound: CCCCCCCCCCCC(=O)N[C@H](C(=O)O)[C@H](C)CC [Example 35]
- PPAR-α induction ratio (PPAR-α): 54.7
- PPAR-γ induction ratio (PPAR-γ): 21.1

Compound: CCCCCCCCCCC(=O)N[C@@H](Cc1ccccc1)C(=O)O [Example 12]
- PPAR-α induction ratio (PPAR-α): 1.4
- PPAR-γ induction ratio (PPAR-γ): 4.2

Compound: CCCCCCCCCCCC(=O)N[C@H](C(=O)O)c1ccccc1 [Example 36]
- PPAR-α induction ratio (PPAR-α): 12.5
- PPAR-γ induction ratio (PPAR-γ): 8.7

Compound: CCCCCCCCCCCC(=O)N(CC)[C@H](C(=O)O)C(C)C [Example 24]
- PPAR-α induction ratio (PPAR-α): 46.0
- PPAR-γ induction ratio (PPAR-γ): 16.4

Compound: CCCCCCCCCC(=O)N[C@@H](CC(C)C)C(=O)O [Example 6]
- PPAR-α induction ratio (PPAR-α): 1.3
- PPAR-γ induction ratio (PPAR-γ): 9.5

Compound: CCCCCCCCCC(=O)N[C@H](C(=O)O)[C@@H](C)CC [Example 5]
- PPAR-α induction ratio (PPAR-α): 3.5
- PPAR-γ induction ratio (PPAR-γ): 15.9

Compound: CCCCCCCCCC(=O)N[C@H](C(=O)O)C(C)(C)C [Example 32]
- PPAR-α induction ratio (PPAR-α): 31.5
- PPAR-γ induction ratio (PPAR-γ): 15.2
